What was measured:
Type in all cases: cell-based
KCNQ1 = KCNQ1 (Homo sapiens, UniProt P51787); assay: Two-electrode voltage-clamp in Xenopus laevis oocytes, KCNQ1; parameters: KCNQ1 Block (%): dose or concentration left out as unconfirmed
Method: (§1) Female Xenopus laevis extracted ovaries were purchased from eNASCO (LM00935MX, eNASCO Fort Atkinson, Wis.). […] Approximately 50 nl cRNA (about 50 ng) was injected for KCNQ1, KCNQ4, and KCNQ5 using a Nanoject microinjector (Drummond, Broomall, Pa., USA). For co-expression of KCNQ2 and KCNQ3 and of KCNQ1 and KCNE1, cRNA's were mixed in equal molar ratios before injection of approximately 50 nl. […] Oocytes were kept in Culture Barth solution at 19° C. which was changed daily and currents were recorded after 3 to 5 days.
(§2) KCNQ channel currents expressed in Xenopus laevis oocytes were recorded using a two-electrode voltage-clamp. […] The oocytes were placed in custom built perfusion chambers connected to a continuous flow system and impaled with a current electrode and a voltage-clamp electrode pulled from borosilicate glass on a Flaming/Brown Micropipette Puller (Sutter Instruments Co, Novato, Calif., USA).
(§3) All compounds were dissolved in DMSO to obtain concentrated stock solutions. On the day of electrophysiological experiments the stock solutions were thawed and diluted in recording solution to their final concentrations. The final DMSO concentration never exceeded 0.1%. Compound delivery was performed using a custom built multi-barrel apparatus connected to the flow system.
(§4) Data were acquired by means of an Axograph X software (Axograph Scientific, Sydney, AU) and analyzed using Graph Pad Prism (GraphPad Software Inc., CA, USA). […]
(§5) After steady channel current was recorded in the presence of Retigabine at its EC75, recorded oocyte was washed with the recording solution until its steady current returned to its normal level without the presence of any drugs. Then the channel steady current was recorded in the presence of the test compound at its EC75. The percent efficacy was then expressed as: % efficacy=(C2/C 1)×100 where C2 is the recorded steady current in the presence of follow-on compound at its EC75 and C1 is the recorded steady current in the presence of Retigabine at its EC75.

KCNQ1/NE1 = KCNQ1/NE1 (Homo sapiens, UniProt P51787); assay: Two-electrode voltage-clamp in Xenopus laevis oocytes, KCNQ1/KCNE1; parameters: dose or concentration left out as unconfirmed; details: oocyte expression
KCNQ1/NE1, sequence (P51787 whole entry): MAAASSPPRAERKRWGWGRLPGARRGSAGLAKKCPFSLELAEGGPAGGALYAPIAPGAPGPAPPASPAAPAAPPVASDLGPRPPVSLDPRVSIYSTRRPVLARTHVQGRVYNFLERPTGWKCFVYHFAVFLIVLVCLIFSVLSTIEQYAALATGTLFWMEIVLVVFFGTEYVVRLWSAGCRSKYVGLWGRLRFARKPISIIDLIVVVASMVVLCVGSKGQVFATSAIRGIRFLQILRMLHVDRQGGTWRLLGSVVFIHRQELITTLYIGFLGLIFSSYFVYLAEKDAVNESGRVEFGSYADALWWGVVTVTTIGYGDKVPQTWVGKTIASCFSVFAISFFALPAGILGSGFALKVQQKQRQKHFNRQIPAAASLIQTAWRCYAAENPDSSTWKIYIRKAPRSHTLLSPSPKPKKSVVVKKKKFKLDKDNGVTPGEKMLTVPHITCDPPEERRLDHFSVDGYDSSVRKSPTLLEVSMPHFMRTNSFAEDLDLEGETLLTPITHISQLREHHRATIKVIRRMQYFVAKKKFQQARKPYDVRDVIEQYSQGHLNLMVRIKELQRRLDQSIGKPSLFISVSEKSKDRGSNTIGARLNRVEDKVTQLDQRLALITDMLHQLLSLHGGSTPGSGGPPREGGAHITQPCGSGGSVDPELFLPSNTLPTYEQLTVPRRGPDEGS
Method: as §1
KCNQ channel currents expressed in Xenopus laevis oocytes were recorded using a two-electrode voltage-clamp. […]
as §4, §5

KCNQ5 = KCNQ5 (Homo sapiens, UniProt Q9NR82); assay: Two-electrode voltage-clamp in Xenopus laevis oocytes, KCNQ5
Method: as §1, §2, §3, §4, §5

KCNQ2 channels = target: T1, KCNQ2 channels (Homo sapiens, UniProt O43526); assay: Potassium ion efflux, KCNQ2 channels expressed in CHO cells
T1 construct: expressed in transfected cells; host or cells: CHO cells
T1 sequence (O43526 whole entry): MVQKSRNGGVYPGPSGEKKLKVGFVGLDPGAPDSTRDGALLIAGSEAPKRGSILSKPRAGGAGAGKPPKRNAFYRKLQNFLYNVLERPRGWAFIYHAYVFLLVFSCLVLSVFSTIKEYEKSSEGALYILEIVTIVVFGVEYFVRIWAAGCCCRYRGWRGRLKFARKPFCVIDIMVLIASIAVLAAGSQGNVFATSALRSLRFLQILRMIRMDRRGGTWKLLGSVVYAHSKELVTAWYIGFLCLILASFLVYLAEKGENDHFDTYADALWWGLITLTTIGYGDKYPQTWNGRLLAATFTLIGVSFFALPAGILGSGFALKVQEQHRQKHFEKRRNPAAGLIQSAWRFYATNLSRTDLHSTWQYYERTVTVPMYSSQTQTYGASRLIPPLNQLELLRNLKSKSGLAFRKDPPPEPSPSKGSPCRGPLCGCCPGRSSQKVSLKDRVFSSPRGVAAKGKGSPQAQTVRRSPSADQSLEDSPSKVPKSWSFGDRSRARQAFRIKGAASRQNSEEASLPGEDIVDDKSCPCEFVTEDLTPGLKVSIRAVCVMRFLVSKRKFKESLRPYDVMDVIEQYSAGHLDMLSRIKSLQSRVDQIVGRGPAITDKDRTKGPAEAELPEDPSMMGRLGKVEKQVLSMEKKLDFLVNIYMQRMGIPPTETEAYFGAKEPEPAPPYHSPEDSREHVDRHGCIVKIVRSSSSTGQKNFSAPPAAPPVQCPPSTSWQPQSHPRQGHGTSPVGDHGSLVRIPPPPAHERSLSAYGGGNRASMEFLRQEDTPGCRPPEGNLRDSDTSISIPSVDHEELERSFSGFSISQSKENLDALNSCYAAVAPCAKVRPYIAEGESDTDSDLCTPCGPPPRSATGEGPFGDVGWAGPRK
Method: Using natively expressed M-currents present in differentiated pheochromocytoma (PC-12) cells and CHO cells transfected with KCNQ2 and hERG potassium channels, the in vitro activity of compound A on potassium ion efflux was determined.
The EC50 values for retigabine and compound A on the activation of KCNQ2 channels expressed in CHO cells were determined on three separate occasions in triplicate.

## Cc1cc(N2CCc3cc(F)ccc3C2)cc(C)c1NC(=O)CC(C)(C)C [compound A, N-[4-(6-fluoro-3,4-dihydro-1H-isoquinolin-2-yl)-2,6-dimethylphenyl]-3,3-dimethyl butanamide]
KCNQ1; oocyte expression
  KCNQ1 Block (%): 0%
KCNQ1; selectivity versus KCNQ2-5, in words
  effect on KCNQ1 (cardiac potential): not affecting
KCNQ1/NE1
  KCNQ1/NE1 Block (%): 3.5%
KCNQ5
  EC50: 350 nM
KCNQ5; oocyte expression, at EC75
  KCNQ5 Efficacy Relative to Retigabine (%): 100%
KCNQ2 channels
  EC50: 11 nM

From patent publication US8993593B2, “N-(4-(6-fluoro-3,4-dihydroisoquinolin-2(1H)-yl)-2,6-dimethylphenyl)-3,3-dimethylbutanamide as potassium channel modulators” (Valeant Pharmaceuticals International, priority 2006, dated 2015)
